This test has as its target MAPK14 (human) (UniProt Q16539). Description: Inhibition of MAPK14 Kinase Activity.

Where only a bound is given, the exact number is not on record here.

Usually IC50 stands for the concentration at which inhibition is half-maximal. Read a high IC50 as weaker potency in that assay.

MAPK14 (human), sequence (Q16539 whole entry, looked up): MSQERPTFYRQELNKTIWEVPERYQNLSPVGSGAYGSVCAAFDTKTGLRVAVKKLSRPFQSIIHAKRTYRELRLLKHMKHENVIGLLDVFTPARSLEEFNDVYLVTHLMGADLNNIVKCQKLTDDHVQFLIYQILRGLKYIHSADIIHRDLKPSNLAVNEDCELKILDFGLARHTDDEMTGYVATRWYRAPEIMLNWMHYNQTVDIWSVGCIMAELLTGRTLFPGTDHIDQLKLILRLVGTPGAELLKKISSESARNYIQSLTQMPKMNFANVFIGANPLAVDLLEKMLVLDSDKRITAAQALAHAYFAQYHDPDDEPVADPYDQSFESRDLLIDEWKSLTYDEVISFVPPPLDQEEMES

The molecule `CC(C)NC(=O)c1csc(-c2c(-c3ccc(F)cc3)noc2C2CCNCC2)n1` gave an IC50 of at most 1000 nM.

As for `COc1ccc(CNC(=O)c2csc(-c3sc(C)nc3-c3ccc(F)cc3)n2)cc1`, the IC50 was at most 1000 nM.

Regarding `CC(C)NC(=O)c1csc(-c2oc(CNC(=O)c3ccc4ncccc4c3)nc2-c2ccc(F)cc2)n1`, the IC50 is at most 1000 nM.

Molecule `COc1ccc(C=CC(=O)NCc2nc(-c3ccc(F)cc3)c(-c3nc(C(=O)NC(C)C)cs3)o2)cc1O` registered an IC50 of at most 1000 nM.

As to `CC(C)NC(=O)c1csc(-c2oc(CN3CCN(C(=O)C4CCc5ccccc5C4)CC3)nc2-c2ccc(F)cc2)n1` (stereo not given), the IC50 was at most 1000 nM.

As for `CC(C)NC(=O)c1csc(-c2c(-c3ccc(F)cc3)noc2CN2CCNCC2)n1`, the IC50 is at most 1000 nM.

Consider `COc1cc(C(=O)N2CCN(Cc3nc(-c4ccc(F)cc4)c(-c4nc(C(=O)NC(C)C)cs4)o3)CC2)cc(OC)c1O`, for which the IC50 was at most 1000 nM.

For `COc1ccc(NC(=O)c2csc(-c3sc(C)nc3-c3ccc(F)cc3)n2)c(C)c1`, the IC50 is at most 1000 nM.

`COc1cc(C(=O)NCc2nc(-c3ccc(F)cc3)c(-c3nc(C(=O)NC(C)C)cs3)o2)cc(OC)c1O` came in with an IC50 of at most 1000 nM.

In the case of `COc1cc(C=CC(=O)N2CCN(Cc3nc(-c4ccc(F)cc4)c(-c4nc(C(=O)NC(C)C)cs4)o3)CC2)ccc1O`, the IC50 is at most 1000 nM.

Molecule `O=C(NCc1ccccc1F)c1csc(-c2c(-c3ccc(F)cc3)n[nH]c2C2CCNCC2)n1` had an IC50 of at most 1000 nM.

The molecule `CC(C)NC(=O)c1csc(-c2oc(CNC(=O)C(C)(C)C)nc2-c2ccc(F)cc2)n1` came in with an IC50 of at most 1000 nM.

The molecule `CC(C)NC(=O)c1csc(-c2c(-c3ccc(F)cc3)n[nH]c2C2CCN(C(=O)Cc3ccccc3O)CC2)n1` returned an IC50 of at most 1000 nM.

The molecule `COc1cc(OC)c(C(=O)N2CCN(Cc3nc(-c4ccc(F)cc4)c(-c4nc(C(=O)NC(C)C)cs4)o3)CC2)c(OC)c1` showed an IC50 of at most 1000 nM.

Turning to `CC(C)NC(=O)c1csc(-c2oc(CNCCc3ccc(O)cc3)nc2-c2ccc(F)cc2)n1`, the IC50 was at most 1000 nM.

Regarding `CC(C)NC(=O)c1csc(-c2c(-c3ccc(F)cc3)noc2CNC(=O)Cc2cccc(O)c2)n1`, the IC50 is at most 1000 nM.

The molecule `CC(C)NC(=O)c1csc(-c2oc(CNC(=O)C=Cc3ccccc3F)nc2-c2ccc(F)cc2)n1` gave an IC50 of at most 1000 nM.

The molecule `CC(C)NC(=O)c1csc(-c2[nH]c(CN3CCNCC3)nc2-c2ccc(F)cc2)n1` yielded a half-inhibitory concentration (IC50) of at most 1000 nM.

`O=C(NCc1ccncc1)c1csc(-c2c(-c3ccc(F)cc3)n[nH]c2C2CCNCC2)n1` showed an IC50 of at most 1000 nM.

Molecule `CC(C)NC(=O)c1csc(-c2oc(CNC(=O)c3cccc(F)c3F)nc2-c2ccc(F)cc2)n1` had an IC50 of at most 1000 nM.

Turning to `Cc1nc(-c2ccc(F)cc2)c(-c2nc(C(=O)NCC#N)cs2)s1`, the IC50 is at most 1000 nM.

On to `Cc1nc(-c2ccc(F)cc2)c(-c2nc(C(=O)NCC3CC3)cs2)s1`, for which the IC50 is at most 1000 nM.

The molecule `CC(C)NC(=O)c1csc(-c2oc(CNC(=O)Cc3ccccc3O)nc2-c2ccc(F)cc2)n1` showed an IC50 of at most 1000 nM.

For `CC(C)NC(=O)c1csc(-c2oc(CNC(=O)c3c(F)c(F)c(F)c(F)c3F)nc2-c2ccc(F)cc2)n1`, the IC50 was at most 1000 nM.

Turning to `CC(C)NC(=O)c1csc(-c2oc(CNC(=O)c3cc(F)ccc3[N+](=O)[O-])nc2-c2ccc(F)cc2)n1`, the IC50 was at most 1000 nM.

Regarding `Cc1nc(-c2ccc(F)cc2)c(-c2nc(C(=O)NCc3cc(F)cc(F)c3)cs2)s1`, the IC50 is at most 1000 nM.

Molecule `Cc1nc(-c2ccc(F)cc2)c(-c2nc(C(=O)NCC3(O)CCCCC3)cs2)s1` yielded an IC50 of at most 1000 nM.

Molecule `Cc1onc(-c2ccc(Cl)cc2)c1-c1ccn(C(=O)NCC(C)C)n1` came in with an IC50 of at most 1000 nM.

The molecule `COc1cccc(CNC(=O)c2csc(-c3sc(C)nc3-c3ccc(F)cc3)n2)c1` registered an IC50 of at most 1000 nM.

Consider `COc1ccc(C(=O)N2CCN(Cc3nc(-c4ccc(F)cc4)c(-c4nc(C(=O)NC(C)C)cs4)o3)CC2)c(OC)c1OC`, for which the IC50 was at most 1000 nM.

Regarding `CC(=O)C(=O)N1CCC(c2[nH]nc(-c3ccc(F)cc3)c2-c2nc(C(=O)NC(C)C)cs2)CC1`, the IC50 was at most 1000 nM.

`CC(C)NC(=O)c1csc(-c2oc(CNC(=O)C=Cc3cccc(O)c3)nc2-c2ccc(F)cc2)n1`: the IC50 was at most 1000 nM.

For the molecule `Cc1nc(-c2ccc(F)cc2)c(-c2nc(C(=O)N3CCCC4CCCCC43)cs2)s1` (stereo not given), the IC50 was at most 1000 nM.

The molecule `CCNC(=O)c1csc(-c2c(-c3ccc(F)cc3)n[nH]c2C2CCNCC2)n1` registered an IC50 of at most 1000 nM.

In turn, `CC(C)CC(NC(=O)OC(C)(C)C)C(=O)N1CCC(c2[nH]nc(-c3ccc(F)cc3)c2-c2nc(C(=O)NC(C)C)cs2)CC1` (stereo not given) returned an IC50 of at most 1000 nM.

Molecule `CC(C)NC(=O)c1csc(-c2oc(CNC(=O)CCc3cccc(C(F)(F)F)c3)nc2-c2ccc(F)cc2)n1` displayed an IC50 of at most 1000 nM.

Molecule `CC(C)NC(=O)c1csc(-c2oc(CNC(=O)c3c(F)cccc3Cl)nc2-c2ccc(F)cc2)n1` returned an IC50 of at most 1000 nM.

Turning to `Cc1cccc([N+](=O)[O-])c1C(=O)NCc1nc(-c2ccc(F)cc2)c(-c2nc(C(=O)NC(C)C)cs2)o1`, the IC50 is at most 1000 nM.

Molecule `CC(C)NC(=O)c1csc(-c2oc(CN3CCN(C(=O)c4cccc(O)c4O)CC3)nc2-c2ccc(F)cc2)n1` displayed an IC50 of at most 1000 nM.

As to `CC(C)NC(=O)c1csc(-c2oc(CN3CCN(C(=O)c4ccccc4O)CC3)nc2-c2ccc(F)cc2)n1`, the IC50 is at most 1000 nM.

Consider `Cc1nc(-c2ccc(F)cc2)c(-c2nc(C(=O)Nc3cnc4ccccc4c3)cs2)s1`, for which the IC50 is at most 1000 nM.

Take `CC(C)NC(=O)c1csc(-c2oc(CNC(=O)Cc3cccc(O)c3)nc2-c2ccc(F)cc2)n1`: the IC50 was at most 1000 nM.

Turning to `C#CCNC(=O)c1csc(-c2c(-c3ccc(F)cc3)ncn2C2CCN(C(=O)CO)CC2)n1`, the IC50 was at most 1000 nM.

`CC(C)NC(=O)c1csc(-c2oc(CN3CCN(C(=O)c4cscn4)CC3)nc2-c2ccc(F)cc2)n1` had an IC50 of at most 1000 nM.

`CC(C)NC(=O)c1csc(-c2c(-c3ccc(F)cc3)noc2CN)n1` gave an IC50 of at most 1000 nM.

In turn, `CCC(CO)NC(=O)c1csc(-c2sc(C)nc2-c2ccc(F)cc2)n1` (stereo not given) came in with an IC50 of at most 1000 nM.

In the case of `CC(C)NC(=O)c1csc(-c2oc(CNC(=O)c3ccccc3C(F)(F)F)nc2-c2ccc(F)cc2)n1`, the IC50 was at most 1000 nM.

For `CC(=O)NCc1nc(-c2ccc(F)cc2)c(-c2nc(C(=O)NC(C)C)cs2)[nH]1`, the IC50 is at most 1000 nM.

`Cc1nc(-c2ccc(F)cc2)c(-c2nc(C(=O)NCC(C)c3ccccc3)cs2)s1` (stereo not given): the IC50 was at most 1000 nM.

`CC(CC(=O)N1CCN(Cc2nc(-c3ccc(F)cc3)c(-c3nc(C(=O)NC(C)C)cs3)o2)CC1)CC(C)(C)C` (stereo not given) returned an IC50 of at most 1000 nM.

With `CC(C)NC(=O)c1csc(-c2oc(CN3CCN(C(=O)c4cc(O)ccc4O)CC3)nc2-c2ccc(F)cc2)n1`, the IC50 is at most 1000 nM.

`COc1ccc(OC)c(CCNC(=O)c2csc(-c3sc(C)nc3-c3ccc(F)cc3)n2)c1` had an IC50 of at most 1000 nM.

`O=C(NCC1CC1)c1csc(-c2c(-c3ccc(F)cc3)n[nH]c2C2CCNCC2)n1`: the IC50 is at most 1000 nM.

The molecule `CC(C)NC(=O)c1csc(-c2oc(CN3CCN(C(=O)C4CCc5ccccc54)CC3)nc2-c2ccc(F)cc2)n1` (stereo not given) had an IC50 of at most 1000 nM.

In the case of `CC(C)NC(=O)n1ccc(-c2c(-c3ccc(F)cc3)noc2CN(C)C)n1`, the IC50 is at most 1000 nM.

For the molecule `O=C(NC1CCC1)c1csc(-c2c(-c3ccc(F)cc3)n[nH]c2C2CCNCC2)n1`, the IC50 is at most 1000 nM.

As for `CC(C)NC(=O)c1csc(-c2oc(CNC(=O)c3cc4ccccc4s3)nc2-c2ccc(F)cc2)n1`, the IC50 was at most 1000 nM.

Molecule `Cc1nc(-c2ccc(F)cc2)c(-c2nc(C(=O)N[C@H](CO)Cc3ccccc3)cs2)s1` registered an IC50 of at most 1000 nM.

With `Cc1cc(C(=O)NCc2nc(-c3ccc(F)cc3)c(-c3nc(C(=O)NC(C)C)cs3)o2)n[nH]1`, the IC50 was at most 1000 nM.

Consider `CC(C)NC(=O)c1csc(-c2c(-c3ccc(F)cc3)noc2CNCCCN2CCCC2=O)n1`, for which the IC50 was at most 1000 nM.

On to `CC(C)NC(=O)c1csc(-c2oc(CNC(=O)c3cccc(Cl)c3Cl)nc2-c2ccc(F)cc2)n1`, for which the IC50 was at most 1000 nM.

For `Cc1nc(-c2ccc(F)cc2)c(-c2nc(C(=O)NCc3ccccc3)cs2)s1`, the half-inhibitory concentration (IC50) was at most 1000 nM.

On to `O=C(NCCCO)c1csc(-c2c(-c3ccc(F)cc3)n[nH]c2C2CCNCC2)n1`, for which the IC50 was at most 1000 nM.

The molecule `Cc1nc(-c2ccc(F)cc2)c(-c2nc(C(=O)NC(C)C)cs2)[nH]1` registered an IC50 of at most 1000 nM.

Turning to `COc1cc(C=CC(=O)NCc2nc(-c3ccc(F)cc3)c(-c3nc(C(=O)NC(C)C)cs3)o2)ccc1O`, the IC50 was at most 1000 nM.

Take `COc1ccc(Br)c(C(=O)NCc2nc(-c3ccc(F)cc3)c(-c3nc(C(=O)NC(C)C)cs3)o2)c1`: the IC50 is at most 1000 nM.

Molecule `Cc1nc(-c2ccc(F)cc2)c(-c2nc(C(=O)NCCCN3CCOCC3)cs2)s1` returned an IC50 of at most 1000 nM.

As for `COc1cc(OC)c(C(=O)N2CCN(Cc3nc(-c4ccc(F)cc4)c(-c4nc(C(=O)NC(C)C)cs4)o3)CC2)cc1OC`, the IC50 is at most 1000 nM.

On to `CCOC(=O)CC(=O)NCc1nc(-c2ccc(F)cc2)c(-c2nc(C(=O)NC(C)C)cs2)o1`, for which the IC50 is at most 1000 nM.

For the molecule `CC(C)NC(=O)c1csc(-c2c(-c3ccc(F)cc3)n[nH]c2C2CCN(C(=O)C3CN(C(=O)OC(C)(C)C)CCN3)CC2)n1` (stereo not given), the IC50 was at most 1000 nM.

`COc1cccc(OC)c1C(=O)NCc1nc(-c2ccc(F)cc2)c(-c2nc(C(=O)NC(C)C)cs2)o1` showed an IC50 of at most 1000 nM.

Molecule `CC(C)NC(=O)c1csc(-c2oc(CNC(=O)c3ccc(Cl)cc3[N+](=O)[O-])nc2-c2ccc(F)cc2)n1` displayed an IC50 of at most 1000 nM.

Consider `Cc1onc(-c2ccc(Cl)cc2)c1-c1ccn(C(=O)NCCO)n1`, for which the IC50 was at most 1000 nM.

The molecule `CC(C)NC(=O)c1csc(-c2oc(CNC(=O)Cc3ccc(O)c(F)c3)nc2-c2ccc(F)cc2)n1` gave an IC50 of at most 1000 nM.

With `CC(=O)c1cccc(NC(=O)c2csc(-c3sc(C)nc3-c3ccc(F)cc3)n2)c1`, the IC50 was at most 1000 nM.

The values are drawn from the Kinase Knowledgebase extract (Sharma et al. 2016).
